Measurements published in ChEMBL document CHEMBL3739389, “2-Pyridylquinoloneantimalarials with improved antimalarial activity and physicochemical properties” (Medchemcomm, 2015).
pIC50: −log10 of the molar value. In brackets after ≈: the same amount, converted by molar mass.

Experiments:
Plasmodium falciparum [1] = test: Antimalarial activity against drug resistant Plasmodium falciparum W2 infected in human erythrocytes assessed as growth inhibition after 48 hrs by SYBR Green 1 staining-based fluorescence assay; assay type: functional, organism-based; details: W2, 48 h
Plasmodium falciparum [2] = test: Antimalarial activity against drug resistant Plasmodium falciparum TM90C2B infected in human erythrocytes assessed as growth inhibition after 48 hrs by SYBR Green 1 staining-based fluorescence assay; assay type: functional, organism-based
[3] = Kinetic solubility of the compound in phosphate buffer at pH 1 at 200 uM; assay type: physicochemical; details: read-out: Kinetic_solubility
[4] = Kinetic solubility of the compound in fixanal buffer at pH 7.4 at 200 uM; assay type: physicochemical; details: read-out: Kinetic_solubility
[5] = Intrinsic clearance in human liver microsomes at 3 uM assessed per mg of protein up to 45 mins in presence of NADPH by LC-MS/MS analysis; assay type: ADME; details: read-out: CLH
Plasmodium falciparum [6] = test: Antimalarial activity against Plasmodium falciparum 3D7 infected in human erythrocytes assessed as growth inhibition after 48 hrs by SYBR Green 1 staining-based fluorescence assay; assay type: functional, organism-based; details: 3D7, 48 h
[7] = Intrinsic clearance in rat hepatocytes at 3 uM assessed per 10^6 cells up to 45 mins […] by LC-MS/MS analysis; assay type: ADME, cell-based, Hepatocyte; details: read-out: CLH
cytochrome b-c1 complex [8] = test: Inhibition of cytochrome b-c1 complex bovine heart mitochondrial membranes assessed as reduction in cytochrome c reductase activity using decylubiquinol as substrate at 100 uM by UV-visible spectrophotometric analysis; set-up: species or system Bos taurus; details: cattle, probe decylubiquinol
cytochrome b-c1 complex [9] = test: Inhibition of cytochrome b-c1 complex bovine heart mitochondrial membranes assessed as reduction in cytochrome c reductase activity using decylubiquinol as substrate at 1 uM by UV-visible spectrophotometric analysis; set-up: species or system Bos taurus; details: cattle, probe decylubiquinol

| SMILES | solubility kinetic at 200 µM [3] | solubility kinetic at 200 µM [4] | pIC50 (Plasmodium falciparum [6]) | further results |
| --- | --- | --- | --- | --- |
| Cc1c(-c2ccc(-c3ccc(OC(F)(F)F)cc3)nc2)[nH]c2ccccc2c1=O | 3.2 µM (≈ 1.27 µg/mL) | < 1 µM |  | pIC50 (Plasmodium falciparum [1]): 7.32; pIC50 (Plasmodium falciparum [2]): 6.81; microsomal CLint at 3 µM [5]: 20.6 µL/min/mg |
| COc1cccc2[nH]c(-c3ccc(-c4ccc(OC(F)(F)F)cc4)nc3)c(C)c(=O)c12 |  |  | < 6.00 |  |
| COc1ccc2[nH]c(-c3ccc(-c4ccc(OC(F)(F)F)cc4)nc3)c(C)c(=O)c2c1 |  |  | < 6.00 |  |
| COc1cccc2c(=O)c(C)c(-c3ccc(-c4ccc(OC(F)(F)F)cc4)nc3)[nH]c12 |  |  | < 6.00 |  |
| Cc1c(-c2ccc(-c3ccc(OC(F)(F)F)cc3)nc2)[nH]c2ccc(O)cc2c1=O |  |  | 6.49 |  |
| Cc1c(-c2ccc(-c3ccc(OC(F)(F)F)cc3)nc2)[nH]c2c(O)cccc2c1=O |  |  | < 6.00 |  |
| COc1ccc2c(=O)c(C)c(-c3ccc(-c4ccc(Cl)c(Cl)c4)nc3)[nH]c2c1 |  |  | 6.70 |  |
| COc1ccc2c(=O)c(C)c(-c3cncc(-c4ccc(Cl)c(Cl)c4)c3)[nH]c2c1 | 15 µM (≈ 6.17 µg/mL) | 14 µM (≈ 5.76 µg/mL) | 7.74 | microsomal CLint at 3 µM [5]: 14 µL/min/mg; hepatocyte CLint at 3 µM [7]: 4.9 µL/min/1e6 cells; inhibition at 100 µM (cytochrome b-c1 complex [8]): 13%; inhibition at 1 µM (cytochrome b-c1 complex [9]): 20% |
| Cc1c(-c2cncc(-c3ccc(OC(F)(F)F)cc3)c2)[nH]c2ccccc2c1=O | 140 µM (≈ 55.5 µg/mL) | 3.6 µM (≈ 1.43 µg/mL) | 7.39 | microsomal CLint at 3 µM [5]: 12.5 µL/min/mg; hepatocyte CLint at 3 µM [7]: 1.8 µL/min/1e6 cells; inhibition at 100 µM (cytochrome b-c1 complex [8]): 20%; inhibition at 1 µM (cytochrome b-c1 complex [9]): 25% |
| Cc1c(-c2cccc(-c3ccc(OC(F)(F)F)cc3)n2)[nH]c2ccccc2c1=O |  |  | 6.41 |  |
| COc1ccc2c(=O)c(C)c(-c3ccc(-c4ccc(OC(F)(F)F)cc4)nc3)[nH]c2c1 | 2.6 µM (≈ 1.11 µg/mL) | < 1 µM | 7.85 | inhibition at 100 µM (cytochrome b-c1 complex [8]): 55%; inhibition at 1 µM (cytochrome b-c1 complex [9]): 98% |
| COc1ccc2c(=O)c(C)c(-c3ccnc(-c4ccc(OC(F)(F)F)cc4)c3)[nH]c2c1 | 120 µM (≈ 51.2 µg/mL) | < 1 µM | 7.92 | pIC50 (Plasmodium falciparum [1]): 8.38; pIC50 (Plasmodium falciparum [2]): 8.15; inhibition at 100 µM (cytochrome b-c1 complex [8]): 63%; inhibition at 1 µM (cytochrome b-c1 complex [9]): 85% |
| COc1ccc2c(=O)c(C)c(-c3cc(-c4ccc(OC(F)(F)F)cc4)ccn3)[nH]c2c1 |  |  | 6.82 |  |
| COc1ccc2c(=O)c(C)c(-c3ccc(-c4ccc(OC(F)(F)F)cc4)cn3)[nH]c2c1 |  |  | < 6.00 |  |
| Cc1c(-c2ccc(-c3ccc(OC(F)(F)F)cc3)cn2)[nH]c2ccccc2c1=O |  |  | < 6.00 |  |
| COc1ccc2c(=O)c(C)c(-c3cccc(-c4ccc(OC(F)(F)F)cc4)n3)[nH]c2c1 |  |  | 6.83 |  |
| O=c1c2c([nH]c3ccccc13)CN(Cc1ccc(OC(F)(F)F)cc1)C2 |  |  | 6.70 |  |
| O=c1c2c([nH]c3ccccc13)CN(Cc1ccc(Cl)c(Cl)c1)C2 |  |  | 7.15 |  |
| Cc1c(-c2cncc(-c3ccc(Cl)c(Cl)c3)c2)[nH]c2ccccc2c1=O |  |  | 7.40 | microsomal CLint at 3 µM [5]: 5.6 µL/min/mg; hepatocyte CLint at 3 µM [7]: 9.9 µL/min/1e6 cells |
| COc1ccc2c(=O)c(C)c(-c3cncc(-c4ccc(OC(F)(F)F)cc4)c3)[nH]c2c1 | 7.8 µM (≈ 3.33 µg/mL) | < 1 µM | 7.92 | pIC50 (Plasmodium falciparum [1]): 8.40; pIC50 (Plasmodium falciparum [2]): 8.14; microsomal CLint at 3 µM [5]: 25.9 µL/min/mg; hepatocyte CLint at 3 µM [7]: 1.2 µL/min/1e6 cells; inhibition at 100 µM (cytochrome b-c1 complex [8]): 19%; inhibition at 1 µM (cytochrome b-c1 complex [9]): 81% |
| Cc1c(-c2ccnc(-c3ccc(OC(F)(F)F)cc3)c2)[nH]c2ccccc2c1=O | 79 µM (≈ 31.3 µg/mL) | 2.1 µM (≈ 0.832 µg/mL) | 7.68 | microsomal CLint at 3 µM [5]: 7.7 µL/min/mg; hepatocyte CLint at 3 µM [7]: 2.5 µL/min/1e6 cells; inhibition at 100 µM (cytochrome b-c1 complex [8]): 52%; inhibition at 1 µM (cytochrome b-c1 complex [9]): 81% |
| O=C1C(O)=C([C@H]2CC[C@H](c3ccc(Cl)cc3)CC2)C(=O)c2ccccc21 [ATOVAQUONE] |  |  |  | pIC50 (Plasmodium falciparum [1]): 9.52; pIC50 (Plasmodium falciparum [2]): 5.00 |
